Assay results reported in patent US20200246323A1, “Antibody Drug Conjugates with Cell Permeable BCL-XL Inhibitors” (AbbVie Inc., priority 2014, published 2020).
Where two headings read alike, the source gives them in different places. Marks after values point to notes of the source that are not given here. Blank lines part the entries; values can stand above or below the compound they belong to.

What was measured:
NCI-H1963.FP5 xenografts = test: Inhibition of H1963.FP5 xenograft tumor growth; type: in vivo, mouse; conditions: Table 15; 50 mg/kg/day PO QDx21
NCI-H146 xenografts = test: Inhibition of H146 xenograft tumor growth; type: in vivo, mouse; conditions: Table 14; 50 mg/kg/day PO QDx21
circulating platelets [1] = conditions: SCID/bg, mouse, in vivo, po, 100 mg/kg
EBC-1 xenografts = test: Inhibition of EBC-1 xenograft tumor growth; type: in vivo, mouse; conditions: Table 13, 7.5 mg/kg/day IV QDx1
NCI-H1650 xenografts = test: Inhibition of H1650 xenograft tumor growth; type: in vivo, mouse; conditions: Table 9
circulating platelets [2] = test: Number of circulating platelets in mice after a single dose; conditions: for Lowest thrombocyte count / Time to lowest count: SCID/bg mice
GST-Bcl-xL = GST-Bcl-xL (Homo sapiens, UniProt Q07817); test: TR-FRET Bcl-xL binding assay (competition with probe F-Bak)
Protocol: Tb-anti-GST antibody was purchased from Invitrogen (Catalog No. PV4216).
For the assay, test compounds were serially diluted in DMSO starting at 50 μM (2× starting concentration; 10% DMSO) and 10 μL transferred into a 384-well plate. 10 μL of a protein/probe/antibody mix was then added to each well at final concentrations listed below:
The samples were then mixed on a shaker for 1 minute and incubated for an additional 2 hours at room temperature. For each assay plate, a probe/antibody and protein/antibody/probe mixture were included as a negative and a positive control, respectively. Fluorescence was measured on the Envision (Perkin Elmer) using a 340/35 nm excitation filter and 520/525 (F-Bak) and 495/510 nm (Tb-labeled anti-his antibody) emission filters. Dissociation constants (Ki) were determined using Wang's equation (Wang, 1995, FEBS Lett. 360:111-114). The TR-FRET assay can be performed in the presence of varying concentrations of human serum (HS) or fetal bovine serum (FBS). Compounds were tested both without HS and in the presence of 1% HS.

[3] = tested on: Molt-4 human acute lymphoblastic leukemia cells; test: Molt-4 cell viability assay (CellTiter-Glo, 48 hours); type: cell-based; conditions: 10% human serum, read-out: Molt-4 Viability EC50 (nM, 10% HS)
Text: The ability of exemplary Bcl-xL inhibitors can be determined in cell-based killing assays using a variety of cell lines and mouse tumor models. For example, their activity on cell viability can be assessed on a panel of cultured tumorigenic and non-tumorigenic cell lines, as well as primary mouse or human cell populations. Bcl-xL inhibitory activity of exemplary Bcl-xL inhibitors was confirmed in a cell viability assay with Molt-4 cells.
In one exemplary set of conditions, Molt-4 (ATCC, Manassas, Va.) human acute lymphoblastic leukemia cells were plated 12,500 cells per well in 384-well tissue culture plates (Corning, Corning, N.Y.) in a total volume of 25 μL tissue culture medium supplemented with 10% human serum (Sigma-Aldrich, St. Louis, Mo.) and treated with a 3-fold serial dilution of the compounds of interest from 10 μM to 0.0005 μM. Each concentration was tested in duplicate at least 3 separate times. The number of viable cells following 48 hours of compound treatment was determined using the CellTiter-Glo Luminescent Cell Viability Assay according to the manufacturer's recommendations (Promega Corp., Madison, Wis.). Compounds were tested in the presence of 10% HS.

[4] = single dose 0.61 mg/kg, intravenous
[5] = in the presence of 1% human serum, read-out: Bcl-xL Binding Ki (nM, 1% HS)
[6] = without HS, read-out: Bcl-xL Binding Ki
[7] = 25 mg/kg/day PO QDx14, 25 mg/kg/day

GST-Bcl-xL, sequence (Q07817 whole entry): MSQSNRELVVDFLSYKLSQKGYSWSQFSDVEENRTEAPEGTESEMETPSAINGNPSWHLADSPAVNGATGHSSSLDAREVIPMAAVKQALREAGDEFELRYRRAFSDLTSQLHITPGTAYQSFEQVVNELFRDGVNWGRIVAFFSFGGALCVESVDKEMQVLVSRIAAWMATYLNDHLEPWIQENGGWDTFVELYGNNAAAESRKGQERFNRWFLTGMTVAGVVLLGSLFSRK

SMILES: CC1(C)CCC(CN2CCN(c3ccc(C(=O)NS(=O)(=O)c4ccc(NCC5CCOCC5)c([N+](=O)[O-])c4)c(Oc4cnc5[nH]ccc5c4)c3)CC2)=C(c2ccc(Cl)cc2)C1 [ABT-199]
- Growth Inhibition TGD (%) (NCI-H1963.FP5 xenografts): 22* %
- Growth Inhibition TGImax (%) (NCI-H1963.FP5 xenografts): 50* %
- Response Frequency CR (%) (NCI-H1963.FP5 xenografts): 0%
- Response Frequency OR (%) (NCI-H1963.FP5 xenografts): 0%
- Response Frequency PR (%) (NCI-H1963.FP5 xenografts): 0%
- Growth Inhibition TGD (%) (NCI-H146 xenografts): 48* %
- Growth Inhibition TGImax (%) (NCI-H146 xenografts): 75* %
- Response Frequency CR (%) (NCI-H146 xenografts): 0%
- Response Frequency OR (%) (NCI-H146 xenografts): 0%
- Response Frequency PR (%) (NCI-H146 xenografts): 0%

SMILES: CC1(C)CCC(c2ccc(Cl)cc2)=C(CN2CCN(c3ccc(C(=O)NS(=O)(=O)c4ccc(N[C@H](CCN5CCOCC5)CSc5ccccc5)c(S(=O)(=O)C(F)(F)F)c4)cc3)CC2)C1 [ABT-263, Navitoclax]
- Time to lowest count (circulating platelets [1]): 6 h
- Lowest thrombocyte count (circulating platelets [1]; 6 h): 10 1/10^3 of the platelet#/mm^3

SMILES: CC(=O)O[C@@]12CO[C@@H]1C[C@H](O)[C@@]1(C)C(=O)[C@H](O)C3=C(C)[C@@H](OC(=O)[C@H](O)[C@@H](NC(=O)OC(C)(C)C)c4ccccc4)C[C@@](O)([C@@H](OC(=O)c4ccccc4)[C@H]21)C3(C)C [DTX, docetaxel]
- Response Frequency CR (%) (EBC-1 xenografts): 0%
- Response Frequency OR (%) (EBC-1 xenografts): 0%
- Response Frequency PR (%) (EBC-1 xenografts): 0%
- Growth Inhibition TGD (%) (EBC-1 xenografts; 7.5 mg/kg/day): 44%
- Growth Inhibition TGImax (%) (EBC-1 xenografts; 7.5 mg/kg/day): 76%
- Growth Inhibition TGD (%) (NCI-H1650 xenografts; 7.5 mg/kg/day IV QDx1): 94* %
- Growth Inhibition TGImax (%) (NCI-H1650 xenografts; 7.5 mg/kg/day IV QDx1): 73* %
- Response Frequency CR (%) (NCI-H1650 xenografts; 7.5 mg/kg/day IV QDx1): 0%
- Response Frequency OR (%) (NCI-H1650 xenografts; 7.5 mg/kg/day IV QDx1): 0%
- Response Frequency PR (%) (NCI-H1650 xenografts; 7.5 mg/kg/day IV QDx1): 0%

SMILES: Cc1c(-c2ccc(N3CCc4cccc(C(=O)Nc5nc6ccccc6s5)c4C3)nc2C(=O)O)cnn1CC12CC3(C)CC(C)(C1)CC(OCCN)(C3)C2 [Example 1.3, 3-(1-{[3-(2-aminoethoxy)-5,7-dimethyltricyclo[3.3.1.1^3,7]dec-1-yl]methyl}-5-methyl-1H-pyrazol-4-yl)-6-[8-(1,3-benzothiazol-2-ylcarbamoyl)-3,4-dihydroisoquinolin-2(1H)yl]pyridine-2-carboxylic acid]
- Ki (GST-Bcl-xL; [5]): 0.097 nM
- Ki (GST-Bcl-xL; [6]): < 0.001 nM
- EC50 [3]: 6.6 nM

SMILES: Cc1c(-c2ccc(N3CCc4c(F)ccc(C(=O)Nc5nc6ccccc6s5)c4C3)nc2C(=O)O)cnn1CC12CC3(C)CC(C)(C1)CC(OCCN)(C3)C2 [Example 1.6, 3-(1-{[3-(2-aminoethoxy)-5,7-dimethyltricyclo[3.3.1.1^3,7]dec-1-yl]methyl}-5-methyl-1H-pyrazol-4-yl)-6-[8-(1,3-benzothiazol-2-ylcarbamoyl)-5-fluoro-3,4-dihydroisoquinolin-2(1H)-yl]pyridine-2-carboxylic acid]
- Ki (GST-Bcl-xL; [5]): 0.62 nM
- Ki (GST-Bcl-xL; [6]): 0.019 nM
- EC50 [3]: 47 nM

SMILES: Cc1c(-c2ccc(N3CCc4cc(F)cc(C(=O)Nc5nc6ccccc6s5)c4C3)nc2C(=O)O)cnn1CC12CC3(C)CC(C)(C1)CC(OCCN)(C3)C2 [Example 1.7, 3-(1-{[3-(2-aminoethoxy)-5,7-dimethyltricyclo[3.3.1.1^3,7]dec-1-yl]methyl}-5-methyl-1H-pyrazol-4-yl)-6-[8-(1,3-benzothiazol-2-ylcarbamoyl)-6-fluoro-3,4-dihydroisoquinolin-2(1H)-yl]pyridine-2-carboxylic acid]
- Ki (GST-Bcl-xL; [5]): 0.094 nM
- Ki (GST-Bcl-xL; [6]): 0.011 nM
- EC50 [3]: 4 nM

SMILES: Cc1c(-c2ccc(N3CCc4ccc(F)c(C(=O)Nc5nc6ccccc6s5)c4C3)nc2C(=O)O)cnn1CC12CC3(C)CC(C)(C1)CC(OCCN)(C3)C2 [Example 1.8, 3-(1-{[3-(2-aminoethoxy)-5,7-dimethyltricyclo[3.3.1.1^3′ ]dec-1-yl]methyl}-5-methyl-1H-pyrazol-4-yl)-6-[8-(1,3-benzothiazol-2-ylcarbamoyl)-7-fluoro-3,4-dihydroisoquinolin-2(1H)-yl]pyridine-2-carboxylic acid]
- Ki (GST-Bcl-xL; [5]): 17 nM
- Ki (GST-Bcl-xL; [6]): 0.1 nM

SMILES: Cc1c(-c2ccc(N3CCc4cccc(C(=O)Nc5nc6ccccc6s5)c4C3)nc2C(=O)O)cnn1CC12CC3CC(CC(C3)C1)C2 [Example A-1331852]
- Response Frequency CR (%) (NCI-H1650 xenografts; 25 mg/kg/day PO QDx14): 0%
- Response Frequency OR (%) (NCI-H1650 xenografts; 25 mg/kg/day PO QDx14): 0%
- Response Frequency PR (%) (NCI-H1650 xenografts; 25 mg/kg/day PO QDx14): 0%
- Growth Inhibition TGD (%) (NCI-H1650 xenografts; [7]): 78%
- Growth Inhibition TGImax (%) (NCI-H1650 xenografts; [7]): 57%
- Lowest thrombocyte count (circulating platelets [2]; single dose 25 mg/kg, oral): 9 1/10^3 of the platelet#/mm^3
- Time to lowest count (circulating platelets [2]; single dose 25 mg/kg, oral): 6 h

Continued, values first:

- Decrease of the platelet number from normal count (circulating platelets [2]; dose of 0.61 mg/kg): 100 fold
- Lowest thrombocyte count (circulating platelets [2]; [4]): 6 1/10^3 of the platelet#/mm^3
- Time to lowest count (circulating platelets [2]; [4]): 6 h
- Ki (GST-Bcl-xL; [5]): 0.39 nM
- Ki (GST-Bcl-xL; [6]): 0.0029 nM
- EC50 [3]: 7.8 nM
SMILES: CNCCOC12CC3(C)CC(C)(CC(Cn4ncc(-c5ccc(N6CCc7cccc(C(=O)Nc8nc9ccccc9s8)c7C6)nc5C(=O)O)c4C)(C3)C1)C2 [Example 1.1]

- Ki (GST-Bcl-xL; [5]): 0.51 nM
- Ki (GST-Bcl-xL; [6]): 0.04 nM
- EC50 [3]: 5.4 nM
SMILES: CNCCOCCOCCOC12CC3(C)CC(C)(CC(Cn4ncc(-c5ccc(N6CCc7cccc(C(=O)Nc8nc9ccccc9s8)c7C6)nc5C(=O)O)c4C)(C3)C1)C2 [Example 1.2, 6-[8-(1,3-benzothiazol-2-ylcarbamoyl)-3,4-dihydroisoquinolin-2(1H)-yl]-3-(1-({[(1r,3R,5S,7s)-3,5-dimethyl-7-(2-(2-[2-(methylamino)ethoxy]ethoxy}ethoxy)tricyclo[3.3.1.1^3,7]dec-1-yl]methyl)-5-methyl-1H-pyrazol-4-yl)pyridine-2-carboxylic acid]

- Ki (GST-Bcl-xL; [5]): 0.24 nM
- Ki (GST-Bcl-xL; [6]): 0.01 nM
- EC50 [3]: 12.1 nM
SMILES: Cc1c(-c2ccc(N3CCc4cccc(C(=O)Nc5nc6ccccc6s5)c4C3)nc2C(=O)O)cnn1CC12CC3(C)CC(C)(C1)CC(OCCOCCN)(C3)C2 [Example 1.4, 3-[1-({3-[2-(2-aminoethoxy)ethoxy]-5,7-dimethyltricyclo[3.3.1.1^3,7]dec-1-yl}methyl)-5-methyl-1H-pyrazol-4-yl]-6-[8-(1,3-benzothiazol-2-ylcarbamoyl)-3,4-dihydroisoquinolin-2(1H)yl]pyridine-2-carboxylic acid]

- Ki (GST-Bcl-xL; [5]): 0.078 nM
- Ki (GST-Bcl-xL; [6]): < 0.001 nM
- EC50 [3]: 1.85 nM
SMILES: COCCNCCOC12CC3(C)CC(C)(CC(Cn4ncc(-c5ccc(N6CCc7cccc(C(=O)Nc8nc9ccccc9s8)c7C6)nc5C(=O)O)c4C)(C3)C1)C2 [Example 1.5, 6-[8-(1,3-benzothiazol-2-ylcarbamoyl)-3,4-dihydroisoquinolin-2(1H)-yl]-3-(1-[(3-{2-[(2-methoxyethyl)amino]ethoxy}-5,7-dimethyltricyclo[3.3.1.1^3,7]dec-1-yl)methyl]-5-methyl-1H-pyrazol-4-yl)pyridine-2-carboxylic acid]
